Measurements reported in ChEMBL document CHEMBL6078654, “Modular Assembly of Heterotrifunctional Molecules Enabled by Iodosulfonylation of Allenes and Subsequent Amination” (J Med Chem, 2024).
Calls of active or inactive are those of the source. The rule behind the calls is not given here.

Experiments:
HepG2 [1] = experiment: Effect on TGR5 protein level in human HepG2 cells by Western blot analysis; format: functional, cell-based
MDCK = experiment: Effect on TGR5 protein level in dog MDCK cells by Western blot analysis; format: functional, cell-based; conditions: Canis lupus familiaris
HCT-116 [2] = experiment: Effect on TGR5 protein level in human HCT-116 cells by Western blot analysis; format: functional, cell-based
HepG2 [3] = experiment: Antiproliferative activity against human HepG2 cells assessed as inhibition of cell proliferation incubated for 24 hrs by CCK-8 assay; format: functional, cell-based; conditions: HepG2, 24 h
HCT-116 [4] = experiment: Antiproliferative activity against human HCT-116 cells assessed as inhibition of cell proliferation incubated for 24 hrs by CCK-8 assay; format: functional, cell-based; conditions: HCT-116, 24 h
[5] = Antiproliferative activity against dog MDCK cells assessed as inhibition of cell proliferation incubated for 24 hrs by CCK-8 assay; format: toxicity, cell-based, Canis lupus familiaris
HCT-116 [6] = experiment: Cytotoxicity against human HCT-116 cells assessed as cell viability upto 80 uM incubated for 24 hrs by CCK-8 assay; format: toxicity, cell-based; conditions: hct-116, 24 h
HCT-116 [7] = experiment: Cytotoxicity against human HCT-116 cells assessed as cell viability at 320 uM incubated for 24 hrs by CCK-8 assay; format: toxicity, cell-based; conditions: hct-116, 24 h
[8] = Photophysical property of the compound assessed as maximum fluorescent emission peak at 0.03125 to 4 uM by fluorescence spectrophotometric analysis; format: physicochemical; conditions: dose 0.03125-4 µM
[9] = Drug localization in human HCT-116 cells Endoplasmic reticulum assessed as increase fluorescence at 30 uM incubated for 30 mins by ER-tracker red probe based inverted fluorescent microscopic analysis; format: ADME, subcellular; conditions: hct-116, 0.5 h
[10] = Drug localization in human HCT-116 cells Mitochondria assessed as increase fluorescence at 30 uM incubated for 30 mins by mito-tracker probe based inverted fluorescent microscopic analysis; format: ADME; conditions: hct-116, 0.5 h
[11] = Drug localization in human HCT-116 cells Lysosome assessed as increase fluorescence at 30 uM incubated for 30 mins by lyso-tracker probe based inverted fluorescent microscopic analysis; format: ADME, subcellular; conditions: hct-116, 0.5 h

C=C(C(NCCNC(=O)CC[C@@H](C)[C@H]1CC[C@H]2[C@@H]3CC[C@@H]4C[C@H](O)CC[C@]4(C)[C@H]3CC[C@]12C)c1ccc(C(=O)OCCOCCOCCOC(=O)O[C@H]2c3cc4c(cc3[C@@H](c3cc(OC)c(OC)c(OC)c3)[C@H]3C(=O)OC[C@@H]32)OCO4)cc1)S(=O)(=O)c1cccc2c(N(C)C)cccc12 (some centres not stated)
Activity (HepG2 [1]): Active
Activity (MDCK): Active
Activity (HCT-116 [2]): Active
IC50 (HepG2 [3]): 2.1 µM
IC50 (HCT-116 [4]): 5.5 µM
IC50 at 24 h [5]: 14.6 µM

C=C(C(NCCNC(=O)C(C)c1ccc(CC(C)C)cc1)c1ccc(C(=O)OC)cc1)S(=O)(=O)c1cccc2c(N(C)C)cccc12 (configuration not stated)
Activity (HCT-116 [6]): Toxic

C=C(C(NCCOC(=O)C(C)c1ccc(CC(C)C)cc1)c1ccc(C(=O)OC)cc1)S(=O)(=O)c1cccc2c(N(C)C)cccc12 (configuration not stated)
Activity (HCT-116 [7]): Non-toxic
Activity [8]: Active
Drug uptake [9]: Active
Drug uptake [10]: Not_active
Drug uptake [11]: Not_active
